Data taken from patent US12157741B2, “Macrocyclic inhibitors of DYRK1A” (DANA-FARBER CANCER INSTITUTE, INC., priority 2018, dated 2024).
Read-outs that look alike come from different tables or passages of the source.

Experiments:
Assay type in all cases: binding
various enzymes [1] = biological target: various enzymes (Homo sapiens, UniProt O14976); details: compound 1 uM
Description: (§1) Ambit profiling was conducted in accordance with the manufacturer's instructions.

various enzymes [2] = biological target: various enzymes (Homo sapiens, UniProt P00519, Q252H); details: compound 1 uM
Description: as §1

various enzymes [3] = biological target: various enzymes (Homo sapiens, UniProt P00533, G719C)
Description: as §1

various enzymes [4] = biological target: various enzymes (Homo sapiens, UniProt P07949, M918T)
Description: as §1

various enzymes [5] = biological target: various enzymes (Homo sapiens, UniProt P08631); details: compound 1 uM
Description: as §1

various enzymes [6] = biological target: various enzymes (Homo sapiens, UniProt P10721, V559D)
Description: as §1

various enzymes [7] = biological target: various enzymes (Homo sapiens, UniProt P27361); details: compound 1 uM
Description: as §1

various enzymes [8] = biological target: various enzymes (Homo sapiens, UniProt P33981); details: compound 1 uM
Description: as §1

various enzymes [9] = biological target: various enzymes (Homo sapiens, UniProt P36507); details: compound 1 uM
Description: as §1

various enzymes [10] = biological target: various enzymes (Homo sapiens, UniProt P36888, K663Q)
Description: as §1

various enzymes [11] = biological target: various enzymes (Homo sapiens, UniProt P41240); details: compound 1 uM
Description: as §1

various enzymes [12] = biological target: various enzymes (Homo sapiens, UniProt P42336, C420R)
Description: as §1

various enzymes [13] = biological target: various enzymes (Homo sapiens, UniProt P42336, E545K)
Description: as §1

various enzymes [14] = biological target: various enzymes (Homo sapiens, UniProt P51955); details: compound 1 uM
Description: as §1

various enzymes [15] = biological target: various enzymes (Homo sapiens, UniProt P53355); details: compound 1 uM
Description: as §1

various enzymes [16] = biological target: various enzymes (Homo sapiens, UniProt P68400); details: compound 1 uM
Description: as §1

various enzymes [17] = biological target: various enzymes (Homo sapiens, UniProt Q00532); details: compound 1 uM
Description: as §1

various enzymes [18] = biological target: various enzymes (Homo sapiens, UniProt Q02779); details: compound 1 uM
Description: as §1

various enzymes [19] = biological target: various enzymes (Homo sapiens, UniProt Q05397); details: compound 1 uM
Description: as §1

various enzymes [20] = biological target: various enzymes (Homo sapiens, UniProt Q13188); details: compound 1 uM
Description: as §1

various enzymes [21] = biological target: various enzymes (Homo sapiens, UniProt Q13237); details: compound 1 uM
Description: as §1

various enzymes [22] = biological target: various enzymes (Homo sapiens, UniProt Q13546); details: compound 1 uM
Description: as §1

various enzymes [23] = biological target: various enzymes (Homo sapiens, UniProt Q15746); details: compound 1 uM
Description: as §1

various enzymes [24] = biological target: various enzymes (Homo sapiens, UniProt Q16512); details: compound 1 uM
Description: as §1

various enzymes [25] = biological target: various enzymes (Homo sapiens, UniProt Q16832); details: compound 1 uM
Description: as §1

various enzymes [26] = biological target: various enzymes (Homo sapiens, UniProt Q86Y07); details: compound 1 uM
Description: as §1

various enzymes [27] = biological target: various enzymes (Homo sapiens, UniProt Q8N4C8); details: compound 1 uM
Description: as §1

various enzymes [28] = biological target: various enzymes (Homo sapiens, UniProt Q8TDR2); details: compound 1 uM
Description: as §1

various enzymes [29] = biological target: T1, various enzymes (Homo sapiens, UniProt Q99640); details: compound 1 uM
T1 sequence (Q99640 1-499): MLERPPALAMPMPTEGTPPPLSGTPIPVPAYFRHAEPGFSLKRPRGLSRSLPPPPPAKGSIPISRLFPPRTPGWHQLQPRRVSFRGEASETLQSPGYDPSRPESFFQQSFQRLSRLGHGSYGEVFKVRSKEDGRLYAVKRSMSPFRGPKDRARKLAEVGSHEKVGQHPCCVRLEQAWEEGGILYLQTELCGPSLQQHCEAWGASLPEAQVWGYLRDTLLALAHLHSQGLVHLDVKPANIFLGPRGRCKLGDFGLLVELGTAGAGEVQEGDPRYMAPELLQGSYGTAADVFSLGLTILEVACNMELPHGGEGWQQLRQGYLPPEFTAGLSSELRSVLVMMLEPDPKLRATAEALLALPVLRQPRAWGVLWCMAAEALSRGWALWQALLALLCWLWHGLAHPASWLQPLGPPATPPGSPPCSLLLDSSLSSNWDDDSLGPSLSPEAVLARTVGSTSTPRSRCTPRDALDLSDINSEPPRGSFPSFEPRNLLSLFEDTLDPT
Description: as §1

various enzymes [30] = biological target: various enzymes (Homo sapiens, UniProt Q9BWU1); details: compound 1 uM
Description: as §1

various enzymes [31] = biological target: various enzymes (Homo sapiens, UniProt Q9BXA7); details: compound 1 uM
Description: as §1

various enzymes [32] = biological target: various enzymes (Homo sapiens, UniProt Q9NRP7); details: compound 1 uM
Description: as §1

various enzymes [33] = biological target: various enzymes (Homo sapiens, UniProt Q9NSY1); details: compound 1 uM
Description: as §1

various enzymes [34] = biological target: various enzymes (Homo sapiens, UniProt Q9UKI8); details: compound 1 uM
Description: as §1

various enzymes [35] = biological target: various enzymes (Homo sapiens, UniProt Q9UM73, C1156Y)
Description: as §1

various enzymes [36] = biological target: various enzymes (Homo sapiens, UniProt Q9Y243); details: compound 1 uM
Description: as §1

various enzymes [37] = biological target: various enzymes (Homo sapiens, UniProt Q9Y616); details: compound 1 uM
Description: as §1

Chain of various enzymes (Homo sapiens, UniProt Q9NSY1) (Q9NSY1 whole entry): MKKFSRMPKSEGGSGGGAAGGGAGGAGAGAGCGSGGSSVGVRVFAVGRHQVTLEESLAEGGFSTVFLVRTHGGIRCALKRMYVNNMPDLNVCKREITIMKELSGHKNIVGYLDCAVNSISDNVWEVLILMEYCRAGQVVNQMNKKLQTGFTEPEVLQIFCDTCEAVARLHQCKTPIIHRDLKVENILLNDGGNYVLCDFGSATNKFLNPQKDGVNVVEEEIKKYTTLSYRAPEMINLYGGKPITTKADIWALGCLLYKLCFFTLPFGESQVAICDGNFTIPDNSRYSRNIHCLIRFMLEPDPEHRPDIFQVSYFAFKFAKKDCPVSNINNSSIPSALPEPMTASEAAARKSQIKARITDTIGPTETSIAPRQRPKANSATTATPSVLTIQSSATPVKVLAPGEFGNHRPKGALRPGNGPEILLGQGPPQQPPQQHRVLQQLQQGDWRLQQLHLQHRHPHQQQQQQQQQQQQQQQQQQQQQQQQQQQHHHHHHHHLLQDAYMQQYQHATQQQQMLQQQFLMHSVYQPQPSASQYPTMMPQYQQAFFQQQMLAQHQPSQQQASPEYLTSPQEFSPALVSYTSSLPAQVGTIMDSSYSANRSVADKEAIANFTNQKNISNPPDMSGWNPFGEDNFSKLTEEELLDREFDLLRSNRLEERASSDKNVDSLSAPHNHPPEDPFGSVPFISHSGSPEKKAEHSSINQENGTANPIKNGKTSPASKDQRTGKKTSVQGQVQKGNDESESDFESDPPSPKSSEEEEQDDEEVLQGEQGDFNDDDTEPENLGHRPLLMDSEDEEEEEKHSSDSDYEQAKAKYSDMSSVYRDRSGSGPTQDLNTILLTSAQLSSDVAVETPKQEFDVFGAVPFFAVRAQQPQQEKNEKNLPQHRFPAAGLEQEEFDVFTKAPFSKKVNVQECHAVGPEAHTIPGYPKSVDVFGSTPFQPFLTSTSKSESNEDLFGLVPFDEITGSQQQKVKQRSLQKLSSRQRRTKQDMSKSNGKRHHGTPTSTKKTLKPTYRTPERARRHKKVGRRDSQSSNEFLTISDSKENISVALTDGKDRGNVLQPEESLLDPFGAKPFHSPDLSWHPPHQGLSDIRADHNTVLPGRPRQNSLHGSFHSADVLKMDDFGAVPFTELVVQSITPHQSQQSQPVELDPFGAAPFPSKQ
Chain of various enzymes (Homo sapiens, UniProt P51955) (P51955 whole entry): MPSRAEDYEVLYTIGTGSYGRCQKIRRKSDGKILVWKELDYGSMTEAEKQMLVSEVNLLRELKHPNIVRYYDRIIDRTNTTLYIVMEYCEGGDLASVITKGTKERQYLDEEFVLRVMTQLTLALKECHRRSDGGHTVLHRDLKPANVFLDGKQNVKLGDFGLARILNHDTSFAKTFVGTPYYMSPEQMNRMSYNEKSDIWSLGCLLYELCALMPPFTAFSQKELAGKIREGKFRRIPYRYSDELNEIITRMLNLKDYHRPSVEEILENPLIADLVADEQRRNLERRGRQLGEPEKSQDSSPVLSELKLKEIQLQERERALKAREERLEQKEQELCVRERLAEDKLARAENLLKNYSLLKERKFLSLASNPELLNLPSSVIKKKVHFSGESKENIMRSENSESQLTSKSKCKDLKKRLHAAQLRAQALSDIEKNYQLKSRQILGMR
Chain of various enzymes (Homo sapiens, UniProt P27361) (P27361 whole entry): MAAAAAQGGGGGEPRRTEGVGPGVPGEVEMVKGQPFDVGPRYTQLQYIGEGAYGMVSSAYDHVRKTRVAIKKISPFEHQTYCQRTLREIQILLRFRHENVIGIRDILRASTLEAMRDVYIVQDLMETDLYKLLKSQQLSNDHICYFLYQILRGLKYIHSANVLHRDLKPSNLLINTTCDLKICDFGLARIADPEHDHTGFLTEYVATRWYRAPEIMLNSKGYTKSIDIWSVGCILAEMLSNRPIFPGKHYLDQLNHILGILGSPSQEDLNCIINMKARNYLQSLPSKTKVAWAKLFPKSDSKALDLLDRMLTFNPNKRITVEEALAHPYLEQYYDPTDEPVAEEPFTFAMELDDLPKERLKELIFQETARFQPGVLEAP
Chain of various enzymes (Homo sapiens, UniProt P41240) (P41240 whole entry): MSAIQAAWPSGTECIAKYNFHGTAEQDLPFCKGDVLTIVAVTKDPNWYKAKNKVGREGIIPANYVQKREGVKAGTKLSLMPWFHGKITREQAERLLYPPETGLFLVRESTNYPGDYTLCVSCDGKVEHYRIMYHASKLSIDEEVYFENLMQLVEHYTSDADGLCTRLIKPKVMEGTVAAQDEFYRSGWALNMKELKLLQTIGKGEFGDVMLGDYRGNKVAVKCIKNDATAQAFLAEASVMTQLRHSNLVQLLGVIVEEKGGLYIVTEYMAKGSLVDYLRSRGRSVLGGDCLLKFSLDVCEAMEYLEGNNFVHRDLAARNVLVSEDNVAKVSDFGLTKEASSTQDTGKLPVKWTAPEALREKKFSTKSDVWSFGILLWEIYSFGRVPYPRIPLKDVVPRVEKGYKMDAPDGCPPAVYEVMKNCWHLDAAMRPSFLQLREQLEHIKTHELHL
Chain of various enzymes (Homo sapiens, UniProt Q9UKI8) (Q9UKI8 whole entry): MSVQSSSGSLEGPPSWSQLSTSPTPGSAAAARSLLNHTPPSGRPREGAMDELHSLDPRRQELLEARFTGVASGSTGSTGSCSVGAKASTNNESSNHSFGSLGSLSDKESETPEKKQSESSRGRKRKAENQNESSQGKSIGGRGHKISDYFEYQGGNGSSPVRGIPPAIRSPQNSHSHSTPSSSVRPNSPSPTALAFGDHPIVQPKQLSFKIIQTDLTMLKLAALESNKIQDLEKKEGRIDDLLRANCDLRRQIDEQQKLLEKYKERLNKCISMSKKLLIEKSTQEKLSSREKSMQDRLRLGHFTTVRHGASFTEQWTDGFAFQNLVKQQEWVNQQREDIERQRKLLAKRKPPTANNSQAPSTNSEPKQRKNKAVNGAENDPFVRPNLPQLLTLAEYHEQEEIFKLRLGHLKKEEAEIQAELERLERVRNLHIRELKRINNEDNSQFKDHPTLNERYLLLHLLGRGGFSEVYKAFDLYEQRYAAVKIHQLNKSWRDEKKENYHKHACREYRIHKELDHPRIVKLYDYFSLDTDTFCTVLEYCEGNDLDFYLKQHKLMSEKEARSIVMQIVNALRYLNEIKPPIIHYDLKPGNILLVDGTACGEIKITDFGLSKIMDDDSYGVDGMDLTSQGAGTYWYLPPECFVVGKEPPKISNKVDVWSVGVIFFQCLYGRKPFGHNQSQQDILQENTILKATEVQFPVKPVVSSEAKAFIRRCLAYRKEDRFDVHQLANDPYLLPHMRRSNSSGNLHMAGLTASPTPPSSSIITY
Chain of various enzymes (Homo sapiens, UniProt P07949, M918T) (P07949 29-1114 M918T): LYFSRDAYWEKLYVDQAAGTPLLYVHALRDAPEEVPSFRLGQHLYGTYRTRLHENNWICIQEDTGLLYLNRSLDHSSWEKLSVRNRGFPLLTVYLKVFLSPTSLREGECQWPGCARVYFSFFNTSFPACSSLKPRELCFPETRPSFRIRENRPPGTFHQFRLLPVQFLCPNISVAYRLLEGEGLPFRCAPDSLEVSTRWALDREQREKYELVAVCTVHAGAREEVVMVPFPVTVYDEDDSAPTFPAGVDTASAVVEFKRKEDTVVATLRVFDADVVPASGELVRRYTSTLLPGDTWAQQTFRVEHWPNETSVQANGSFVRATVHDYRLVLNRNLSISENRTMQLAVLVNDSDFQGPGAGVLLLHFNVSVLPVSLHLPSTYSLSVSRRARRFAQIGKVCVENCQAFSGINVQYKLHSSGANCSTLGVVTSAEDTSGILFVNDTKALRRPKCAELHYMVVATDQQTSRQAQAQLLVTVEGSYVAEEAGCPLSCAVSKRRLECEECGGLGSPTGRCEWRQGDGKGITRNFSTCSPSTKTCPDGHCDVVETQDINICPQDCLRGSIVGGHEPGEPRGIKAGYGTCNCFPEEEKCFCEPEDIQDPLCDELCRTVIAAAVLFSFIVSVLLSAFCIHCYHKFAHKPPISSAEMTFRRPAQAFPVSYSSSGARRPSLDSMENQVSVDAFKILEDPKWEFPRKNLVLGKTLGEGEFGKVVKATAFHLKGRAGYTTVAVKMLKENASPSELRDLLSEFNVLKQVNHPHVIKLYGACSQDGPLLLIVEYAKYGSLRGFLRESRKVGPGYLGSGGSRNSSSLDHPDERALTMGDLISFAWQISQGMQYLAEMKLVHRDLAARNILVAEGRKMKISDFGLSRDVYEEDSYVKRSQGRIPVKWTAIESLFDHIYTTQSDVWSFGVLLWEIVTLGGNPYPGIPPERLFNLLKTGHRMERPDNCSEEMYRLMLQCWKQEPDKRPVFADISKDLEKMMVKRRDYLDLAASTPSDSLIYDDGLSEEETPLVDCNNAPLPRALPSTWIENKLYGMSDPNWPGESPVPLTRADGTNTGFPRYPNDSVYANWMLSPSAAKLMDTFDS
Chain of various enzymes (Homo sapiens, UniProt P68400) (P68400 whole entry): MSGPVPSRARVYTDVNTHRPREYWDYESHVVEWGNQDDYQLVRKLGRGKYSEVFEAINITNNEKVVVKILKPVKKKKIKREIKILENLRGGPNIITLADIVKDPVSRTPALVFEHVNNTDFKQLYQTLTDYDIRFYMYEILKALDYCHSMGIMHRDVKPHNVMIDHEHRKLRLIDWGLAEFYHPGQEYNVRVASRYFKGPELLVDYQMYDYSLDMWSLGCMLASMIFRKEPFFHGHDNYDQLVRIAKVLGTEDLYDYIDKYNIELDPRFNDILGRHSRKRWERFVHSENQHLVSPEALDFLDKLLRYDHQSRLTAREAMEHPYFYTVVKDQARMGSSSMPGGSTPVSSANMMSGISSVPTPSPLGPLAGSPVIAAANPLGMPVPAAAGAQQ
Chain of various enzymes (Homo sapiens, UniProt Q9BXA7) (Q9BXA7 whole entry): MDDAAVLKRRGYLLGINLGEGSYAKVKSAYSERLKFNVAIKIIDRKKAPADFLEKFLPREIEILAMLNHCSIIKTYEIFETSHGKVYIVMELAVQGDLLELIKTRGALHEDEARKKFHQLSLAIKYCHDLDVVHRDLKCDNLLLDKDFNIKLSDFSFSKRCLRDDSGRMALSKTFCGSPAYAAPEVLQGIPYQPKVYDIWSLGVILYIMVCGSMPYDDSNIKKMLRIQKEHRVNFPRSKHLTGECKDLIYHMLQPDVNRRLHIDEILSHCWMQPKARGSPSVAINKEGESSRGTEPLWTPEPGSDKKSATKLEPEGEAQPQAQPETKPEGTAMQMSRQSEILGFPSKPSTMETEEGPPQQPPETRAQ

Row | SMILES | Ambit profiling: GAK (various enzymes [1]) | Ambit profiling: ABL1(Q252H)-nonphosphorylated (various enzymes [2]) | Ambit profiling: ABL1(Q252H)-phosphorylated (various enzymes [2]) | Ambit profiling: HCK (various enzymes [5]) | Ambit profiling: ERK1 (various enzymes [7]) | Ambit profiling: TTK (various enzymes [8]) | Ambit profiling: MEK2 (various enzymes [9]) | Ambit profiling: CSK (various enzymes [11]) | Ambit profiling: NEK2 (various enzymes [14]) | Ambit profiling: DAPK1 (various enzymes [15]) | Ambit profiling: CSNK2A1 (various enzymes [16]) | Ambit profiling: CDKL1 (various enzymes [17]) | Ambit profiling: MLK2 (various enzymes [18]) | Ambit profiling: FAK (various enzymes [19]) | Ambit profiling: MST2 (various enzymes [20]) | Ambit profiling: PRKG2 (various enzymes [21]) | Ambit profiling: RIPK1 (various enzymes [22]) | Ambit profiling: MYLK (various enzymes [23]) | Ambit profiling: PKN1 (various enzymes [24]) | Ambit profiling: DDR2 (various enzymes [25]) | further results
1 | COc1c2c(nn1C)CN(C(C)C)C(=O)CCCn1cc(c(C(F)(F)F)n1)-c1c[nH]c3ncc-2cc13 [Compound 50, (Z)-5-isopropyl-35-methoxy-31-methyl-13-(trifluoromethyl)-11H,21H,31H-5-aza-2(3,5)-pyrrolo[2,3-b]pyridina-1(4,1),3(4,3)-dipyrazolacyclononaphan-6-one] | 4 | 2.4 | 1.6 | 8.1 | 95 | 23 | 11 | 4.7 | 68 | 65 | 59 | 51 | 60 | 5.3 | 3.1 | 87 | 59 | 14 | 34 | 32 | Ambit profiling: EGFR(G719C) (various enzymes [3]): 51; Ambit profiling: RET(M918T) (various enzymes [4]): 0.25; Ambit profiling: KIT(V559D) (various enzymes [6]): 0.95; Ambit profiling: FLT3(K663Q) (various enzymes [10]): 0.9; Ambit profiling: PIK3CA(C420R) (various enzymes [12]): 91; Ambit profiling: PIK3CA(E545K) (various enzymes [13]): 74; Ambit profiling: VRK2 (various enzymes [26]): 20; Ambit profiling: MINK (various enzymes [27]): 0; Ambit profiling: STK35 (various enzymes [28]): 94; Ambit profiling: PKMYT1 (various enzymes [29]): 86; Ambit profiling: CDK11 (various enzymes [30]): 49; Ambit profiling: TSSK1B (various enzymes [31]): 43; Ambit profiling: STK36 (various enzymes [32]): 100; Ambit profiling: BIKE (various enzymes [33]): 10; Ambit profiling: TLK1 (various enzymes [34]): 58; Ambit profiling: ALK(C1156Y) (various enzymes [35]): 26; Ambit profiling: AKT3 (various enzymes [36]): 100; Ambit profiling: IRAK3 (various enzymes [37]): 15
2 | CC(C)N1Cc2nn(C)cc2-c2cnc3[nH]cc(c3c2)-c2cn(nc2C(F)(F)F)CCCC1=O [Compound 45, (Z)-5-isopropyl-31-methyl-13-(trifluoromethyl)-11H,21H,31H-5-aza-2(3,5)-pyrrolo[2,3-b]pyridina-1(4,1),3(4,3)-dipyrazolacyclononaphan-6-one] | 5.7 | 3.2 | 20 | 24 | 100 | 20 | 12 | 3.9 | 49 | 92 | 19 | 39 | 36 | 20 | 0 | 100 | 85 | 37 | 72 | 13 | Ambit profiling: EGFR(G719C) (various enzymes [3]; compound 1 uM): 59; Ambit profiling: RET(M918T) (various enzymes [4]; compound 1 uM): 0.2; Ambit profiling: KIT(V559D) (various enzymes [6]; compound 1 uM): 3.2; Ambit profiling: FLT3(K663Q) (various enzymes [10]; compound 1 uM): 2; Ambit profiling: PIK3CA(C420R) (various enzymes [12]; compound 1 uM): 100; Ambit profiling: PIK3CA(E545K) (various enzymes [13]; compound 1 uM): 51; Ambit profiling: VRK2 (various enzymes [26]): 37; Ambit profiling: MINK (various enzymes [27]): 1.8; Ambit profiling: STK35 (various enzymes [28]): 100; Ambit profiling: PKMYT1 (various enzymes [29]): 92; Ambit profiling: CDK11 (various enzymes [30]): 100; Ambit profiling: TSSK1B (various enzymes [31]): 83; Ambit profiling: STK36 (various enzymes [32]): 100; Ambit profiling: BIKE (various enzymes [33]): 1.2; Ambit profiling: TLK1 (various enzymes [34]): 55; Ambit profiling: ALK(C1156Y) (various enzymes [35]; compound 1 uM): 16; Ambit profiling: AKT3 (various enzymes [36]): 100; Ambit profiling: IRAK3 (various enzymes [37]): 2.6
